Assay results reported in patent US11083805B2, “Radiolabeled GRPR-antagonists for diagnostic imaging and treatment of GRPR-positive cancer” (Advanced Accelerator Applications International SA, priority 2012, dated 2021).

How the values were obtained:
[1] = Metabolic study in mice (radiochromatogram of ex-vivo mouse blood); parameters: species or system Swiss albino mice; details: mouse blood 5 min after injection
Procedure: A bolus containing the radioligand in normal saline (100-150 μL, =3 nmol, 200-500 μCi) was injected in the tail vein of Swiss albino mice. Animals were kept for 5 min in a cage with access to water and were then euthanized promptly by cardiac puncture while under a mild ether anesthesia. Blood (500-900 μL) was collected from the heart with a syringe and transferred in a pre-chilled Eppendorf tube on ice.
Blood was centrifuged to remove blood cells (10 min, 2000 g/4° C.). The plasma was collected, mixed with acetonitrile (MeCN) in a 1/1 v/v ratio and centrifuged again (10 min, 15000 g/4° C.). Supernatants were concentrated to a small volume (gentle N2-flux at 40° C.), diluted with saline (z 400 μL) and filtered through a Millex GV filter (0.22 μm).
Aliquots of plasma samples (prepared as described above) were loaded on a Symmetry Shield RPM column which was eluted at a flow rate of 1.0 mL/min with the following gradient: 100% A to 90% A in 10 min and from 90% A to 60% for the next 60 min (A=0.1% aqueous TFA (v/v) and B=MeCN). Elution of radiocomponents was monitored by a gamma detector. For ^99mTc-radiopeptides, ITLC-SG analysis was performed in parallel using acetone as the eluent to detect traces of TcO4^− release (TcO4^− Rf=1.0).

PC-3 tumors (hGRPR+) = test: Biodistribution in GRPR+ tumor bearing mice; assay type: in vivo, female SCID mice; details: for uptake in PC-3 tumor: iv, 10 pmol total peptide
Procedure: A 150 μL bolus containing a suspension of 1.5×10^7 freshly harvested human PC-3 cells in normal saline was subcutaneously injected in the flanks of female SCID mice. The animals were kept under aseptic conditions and 2-3 weeks later developed well-palpable tumors at the inoculation site (80-150 mg).
On the day of the experiment, the selected radiopeptide was injected in the tail vein of tumor-bearing mice as a 100 μL bolus (1-2 μCi, 10 pmol total peptide; in saline/EtOH 9/1 v/v). Animals were sacrificed in groups of four under a mild ether anesthesia by cardiac puncture at predetermined time points pi (postinjection). Additional sets of three to four animals were co-injected with excess [Tyr^4]BBN (≈40 nmol) along with test radiopeptide and were sacrificed at 4 h pi (blocked animals). Samples of blood and tissues of interest were immediately collected, weighed and measured for radioactivity in a γ-counter. Stomach and intestines were not emptied of their contents, but measured as collected. Biodistribution data were calculated as percent injected dose per gram tissue (% ID/g) using the Microsoft Excel program with the aid of suitable standards of the injected dose.

[2] = system: human prostate cancer PC-3 xenografts; details: cited from earlier work
malignant lesions = details: cited from earlier work

CC(C)CC(CC(C)C)NC(=O)[C@H](Cc1cnc[nH]1)NC(=O)CNC(=O)[C@@H](NC(=O)[C@H](C)NC(=O)[C@H](Cc1c[nH]c2ccccc12)NC(=O)[C@H](CCC(N)=O)NC(=O)[C@@H](Cc1ccccc1)NC(=O)COCC(=O)Nc1ccc(CNC(=O)CN2CCN(CC(=O)O)CCN(CC(=O)O)CCN(CC(=O)O)CC2)cc1)C(C)C [[67Ga]NeoBOMB-1] [^67Ga-DOTA-(p-aminobenzylamine-diglycolic acid)-[DPhe^6,His^12-CO—NH—CH[(CH2CH(CH3)2]2,des-Leu^3, des-Met^4]BBN(6-14), metal not drawn]
percentage of parent peptide remaining intact [1]: > 97%

CC(C)CC(CC(C)C)NC(=O)[C@H](Cc1cnc[nH]1)NC(=O)CNC(=O)[C@@H](NC(=O)[C@H](C)NC(=O)[C@H](Cc1c[nH]c2ccccc12)NC(=O)[C@H](CCC(N)=O)NC(=O)[C@@H](Cc1ccccc1)NC(=O)COCC(=O)Nc1ccc(CNC(=O)CN2CCN(CC(=O)O)CCN(CC(=O)O)CCN(CC(=O)O)CC2)cc1)C(C)C [[111In]NeoBOMB-1] [^111In-DOTA-(p-aminobenzylamine-diglycolic acid)-[DPhe^6,His^12-CO—NH—CH[(CH2CH(CH3)2)2,des-Leu^13,des-Met^14]BBN(6-14), metal not drawn]
tumor uptake after co-injection of excess [Tyr4]BBN (in vivo receptor blockade) (PC-3 tumors (hGRPR+); 4 h pi, excess [Tyr4]BBN (100 μg)): significantly reduced
uptake in PC-3 tumor (PC-3 tumors (hGRPR+); 4 h pi): 28.6±6.0 % ID/g
uptake in PC-3 tumor (PC-3 tumors (hGRPR+); 24 h pi): 25.9±6.6 % ID/g
percentage of parent peptide remaining intact [1]: > 91%

CC(C)CC(CC(C)C)NC(=O)[C@H](Cc1cnc[nH]1)NC(=O)CNC(=O)[C@@H](NC(=O)[C@H](C)NC(=O)[C@H](Cc1c[nH]c2ccccc12)NC(=O)[C@H](CCC(N)=O)NC(=O)[C@@H](Cc1ccccc1)NC(=O)COCC(=O)Nc1ccc(CNC(=O)C2C[N]3CC[NH][Tc]34(=[O])(=[O])[NH]CC[N]4C2)cc1)C(C)C (some centres unmarked) [[99mTc]NeoBOMB-2]
uptake in PC-3 tumor (PC-3 tumors (hGRPR+); 1 h pi): ~30 % ID/g
uptake in PC-3 tumor (PC-3 tumors (hGRPR+); 4 h pi): ~30 % ID/g
uptake in PC-3 tumor (PC-3 tumors (hGRPR+); 24 h pi): > 25 % ID/g
percentage of parent peptide remaining intact [1]: > 88%

CC(C)CC(CC(C)C)NC(=O)[C@H](Cc1cnc[nH]1)NC(=O)CNC(=O)[C@@H](NC(=O)[C@H](C)NC(=O)[C@H](Cc1c[nH]c2ccccc12)NC(=O)[C@H](CCC(N)=O)NC(=O)[C@@H](Cc1ccccc1)NC(=O)COCC(=O)Nc1ccc(CNC(=O)CN2CCN(CC(=O)O)CCN(CC(=O)O)CCN(CC(=O)O)CC2)cc1)C(C)C [[177Lu]NeoBOMB-1] [^177Lu-DOTA-(p-aminobenzylamine-diglycolic acid)-[DPhe^6,His^12-CO—NH—CH[(CH2CH(CH3)2]2,des-Leu^13,des-Met^14]BBN(6-14), metal not drawn]
tumor-to-pancreas ratios over time (PC-3 tumors (hGRPR+); 4, 24 and 72 h pi, especially at 72 h pi): increasingly higher tumor-to-pancreas ratios
percentage of parent peptide remaining intact [1]: > 92%

[^99mTc—N4′]DPhe-Gln-Trp-Ala-Val-Gly-His-Leu-NHEt [[99mTc]Demobesin 1]
tumor accumulation versus bombesin-based agonists ([99mTc]Demobesin 3-6) ([2]; mice bearing PC-3 xenografts): significantly higher tumor accumulation
clearance from the body of mice and the pancreas ([2]; mouse, in vivo): cleared very rapidly
body and pancreas clearance (malignant lesions; human, in vivo): rapid
in vivo stability (malignant lesions; human, in vivo): rather good
tolerability (malignant lesions; human, in vivo): excellent tolerability
retention in malignant lesions compared to radiolabeled BBN-like agonists (malignant lesions; humans): insufficient retention
